Like-named read-outs stand apart in the source and are kept apart here.
Key:
JAK2 = JAK2 (Homo sapiens (Human), UniProt O60674); assay: Jak Biochemical HTRF Assay (JAK2); conditions: recombinant purified GST-tagged catalytic domain, [ATP] 8.5 μM, [E] 0.052 nM
Procedure: (§1) Jak Biochemical HTRF Assay Protocol
(§2) The ability of compounds to inhibit the activity of JAK1, JAK2, JAK3, and Tyk2 was measured using a recombinant purified GST-tagged catalytic domain for each enzyme (Invitrogen JAK1 #M4290, JAK2 #M4290, JAK3 #M4290, Tyk2 #M4290) in an HTRF format biochemical assay. […] The basic assay protocol is as follows: First, 250 nL of diluted compounds in DMSO were dispensed into the wells of a dry 384-well Black plate (Greiner #781076) using a Labcyte Echo 555 acoustic dispenser. Subsequent reagent additions employed an Agilent Bravo. Next, 18 μL of 1.11× enzyme and 1.11× substrate in 1× assay buffer (Invitrogen kinase buffer # PV3189, 2 mM DTT, 0.05% BSA) were added to the wells and shaken and then preincubated for 30 minutes at room temperature to allow compound binding to equilibrate. After equilibration, 2 μL of 10×ATP in 1× assay buffer was added to initiate the kinase reaction and the plates were shaken and then incubated at room temperature for 120 minutes. At the end of the incubation, 20 μL of 2× stop buffer (streptavidin-Dylight 650 (Thermo #84547B/100 mL), Eu-tagged pY20 antibody (Perkin Elmer #AD0067), EDTA, HEPES, and Triton) was added to quench the reaction. Plates were shaken and centrifuged and then incubated 60 minutes at room temperature and then read on a Perkin Elmer Envision (Xex=337 nm, λem=665 and 615 nm, TRF delay time=20 μs). HTRF signal=10,000*665 nm reading/615 nm reading. After normalization to untreated controls, the percent inhibition of the HTRF signal at each compound concentration was calculated. The plot of percent inhibition versus the log of compound concentration was fit with a 4-parameter dose response equation to calculate IC50 values.

JAK1 = JAK1 (Homo sapiens (Human), UniProt P23458); assay: Jak Biochemical HTRF Assay (JAK1)
Procedure: as §1, §2

[1] = recombinant purified GST-tagged catalytic domain, HTRF, [ATP] 31.8 μM, [E] 1.405 nM

JAK1, sequence (P23458 875-1153): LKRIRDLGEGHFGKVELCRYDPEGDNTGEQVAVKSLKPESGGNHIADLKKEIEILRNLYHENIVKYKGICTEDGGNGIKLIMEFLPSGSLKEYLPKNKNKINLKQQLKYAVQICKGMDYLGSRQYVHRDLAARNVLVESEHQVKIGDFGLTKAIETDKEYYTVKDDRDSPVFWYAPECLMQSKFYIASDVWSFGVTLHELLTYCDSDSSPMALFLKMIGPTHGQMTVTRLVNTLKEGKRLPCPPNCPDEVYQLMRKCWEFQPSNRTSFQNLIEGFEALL
JAK2, sequence (O60674 849-1124): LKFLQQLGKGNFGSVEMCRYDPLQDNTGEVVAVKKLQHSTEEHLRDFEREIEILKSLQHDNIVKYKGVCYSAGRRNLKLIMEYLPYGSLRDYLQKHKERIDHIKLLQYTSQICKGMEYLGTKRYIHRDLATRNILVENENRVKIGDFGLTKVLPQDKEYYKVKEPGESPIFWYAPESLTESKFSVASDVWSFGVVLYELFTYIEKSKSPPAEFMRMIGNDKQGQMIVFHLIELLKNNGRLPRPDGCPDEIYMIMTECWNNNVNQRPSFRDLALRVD

| SMILES | IC50 (JAK2) | IC50 (JAK1; [1]) | IC50 (JAK1) |
| --- | --- | --- | --- |
| CCC1(n2nc(Nc3ccc(C(=O)N4CCOC(C)(C)C4)c(C)c3)c3c(=O)[nH]ccc32)CCN(C(=O)OC(C)(C)C)CC1 [Example 3-2, tert-butyl 4-[3-({4-[(2,2-dimethylmorpholin-4-yl)carbonyl]-3-methylphenyl}amino)-4-oxo-4,5-dihydro-1H-pyrazolo[4,3-c]pyridin-1-yl]-4-ethylpiperidine-1-carboxylate] | 0.75 nM | 0.61 nM |  |
| CCC1(n2nc(Nc3cccc(CC#N)c3)c3c(=O)[nH]ccc32)CCN(C(=O)OC(C)(C)C)CC1 [Example 2-17, tert-butyl 4-(3-((3-(cyanomethyl)phenyl)amino)-4-oxo-4,5-dihydro-1H-pyrazolo [4,3-c]pyridin-1-yl)-4-ethylpiperidine-1-carboxylate] | 3.37 nM | 0.53 nM |  |
| CCC1(n2nc(Nc3ccc(S(C)(=O)=O)cc3)c3c(=O)[nH]ccc32)CCN(C(=O)OC(C)(C)C)CC1 [Example 1-3, tert-butyl 4-ethyl-4-(3-(4-(methylsulfonyl)phenyl-amino)-4-oxo-4,5-dihydropyrazolo[4,3-c]pyridin-1-yl)piperidine-1-carboxylate] | 0.64 nM | 0.12 nM |  |
| CCC1(n2nc(Nc3ccc(C(=O)N4CCOCC(C)C4)c(C)c3)c3c(=O)[nH]ccc32)CCN(C(=O)OC(C)(C)C)CC1 (single isomer, unassigned) [Example 3-19, tert-butyl 4-ethyl-4-[3-({3-methyl-4-[(6R or 6S-methyl-1,4-oxazepan-4-yl)carbonyl]phenyl}amino)-4-oxo-4,5-dihydro-1H-pyrazolo [4,3-c]pyridin-1-yl] piperidine-1-carboxylate] | 0.89 nM | 1.23 nM |  |
| CCC1(n2nc(Nc3ccc(C(=O)N4CCCSCC4)c(C)c3)c3c(=O)[nH]ccc32)CCN(C(=O)OC(C)(C)C)CC1 [Example 3-9, tert-butyl 4-ethyl-4-(3-{[3-methyl-4-(1,4-thiazepan-4-ylcarbonyl)phenyl]amino}-4-oxo-4,5-dihydro-1H-pyrazolo[4,3-c]pyridin-1-yl) piperidine-1-carboxylate] | 1.05 nM | 0.79 nM |  |
| CCC1(n2nc(Nc3ccc(S(=O)(=O)N(C)C)cc3)c3c(=O)[nH]ccc32)CCN(C(=O)OC(C)(C)C)CC1 [Example 1-1, tert-butyl 4-(3-(4-(N,N-dimethylsulfamoyl)phenylamino)-4-oxo-4,5-dihydropyrazolo[4,3-c]pyridin-1-yl)-4-ethylpiperidine-1-carboxylate] | 0.4 nM | 0.2 nM |  |
| CCC1(n2nc(Nc3ccc(C(=O)N4C[C@H]5C[C@@H](C4)O5)c(C)c3)c3c(=O)[nH]ccc32)CCN(C(=O)OC(C)(C)C)CC1 [Example 3-6, tert-butyl 4-ethyl-4-[3-({3-methyl-4-[(1R,5S)-6-oxa-3-azabicyclo[3.1.1]hept-3-ylcarbonyl]phenyl}amino)-4-oxo-4,5-dihydro-1H-pyrazolo[4,3-c]pyridin-1-yl]piperidine-1-carboxylate] | 0.43 nM |  | 0.3 nM |
| CCC1(n2nc(Nc3ccc(C(=O)N4CC5(COC5)C4)c(C)c3)c3c(=O)[nH]ccc32)CCN(C(=O)OC(C)(C)C)CC1 [Example 2-14, tert-butyl 4-ethyl-4-(3-((3-methyl-4-(2-oxa-6-azaspiro[3.3]heptane-6-carbonyl)phenyl)amino)-4-oxo-4,5-dihydro-1H-pyrazolo [4,3-c]pyridin-1-yl) piperidine-1-carboxylate] | 0.43 nM | 0.3 nM |  |
| CCC1(n2nc(Nc3ccc(C(=O)N4CCSCC4)c(C)c3)c3c(=O)[nH]ccc32)CCN(C(=O)OC(C)(C)C)CC1 [Example 2-21, tert-butyl 4-ethyl-4-(3-(3-methyl-4-(thiomorpholine-4-carbonyl)phenylamino)-4-oxo-4,5-dihydropyrazolo[4,3-c]pyridin-1-yl) piperidine-1-carboxylate] | 0.93 nM | 0.84 nM |  |
| CCC1(n2nc(Nc3ccc(C(=O)N4CCCC4)c(C)c3)c3c(=O)[nH]ccc32)CCN(C(=O)OC(C)(C)C)CC1 [Example 2-33, tert-butyl 4-ethyl-4-(3-(3-methyl-4-(pyrrolidine-1-carbonyl)phenylamino)-4-oxo-4,5-dihydropyrazolo[4,3-c]pyridin-1-yl) piperidine-1-carboxylate] | 1.06 nM | 0.73 nM |  |
| CCC1(n2nc(Nc3ccc(C(=O)N4CC[S+]([O-])CC4)c(C)c3)c3c(=O)[nH]ccc32)CCN(C(=O)OC(C)(C)C)CC1 [Example 3-11, tert-butyl 4-ethyl-4-[3-({3-methyl-4-[(1-oxidothiomorpholin-4-yl)carbonyl]phenyl}amino)-4-oxo-4,5-dihydro-1H-pyrazolo[4,3-c]pyridin-1-yl]piperidine-1-carboxylate] | 0.25 nM | 0.19 nM |  |
| CCC1(n2nc(Nc3ccc(C4CCNCC4)cc3)c3c(=O)[nH]ccc32)CCN(C(=O)OC(C)(C)C)CC1 [Example 2-23, tert-butyl 4-ethyl-4-(4-oxo-3-(4-(piperidin-4-yl)phenylamino)-4,5-dihydropyrazolo[4,3-c]pyridin-1-yl) piperidine-1-carboxylate] | 1.92 nM | 1.13 nM |  |
| CCC1(n2nc(Nc3ccc(C(C)(O)C(F)(F)F)cc3)c3c(=O)[nH]ccc32)CCN(C(=O)OC(C)(C)C)CC1 (stereo not shown) [Example 2-42, tert-butyl 4-ethyl-4-(4-oxo-3-((4-(1,1,1-trifluoro-2-hydroxypropan-2-yl)phenyl)amino)-4,5-dihydro-1H-pyrazolo[4,3-c]pyridin-1-yl) piperidine-1-carboxylate] | 4.62 nM | 1.65 nM |  |
| CCC1(n2nc(Nc3ccc(C4CCN(C)CC4)cc3)c3c(=O)[nH]ccc32)CCN(C(=O)OC(C)(C)C)CC1 [Example 2-4, tert-butyl 4-ethyl-4-(3-(4-(1-methylpiperidin-4-yl)phenylamino)-4-oxo-4,5-dihydropyrazolo[4,3-c]pyridin-1-yl) piperidine-1-carboxylate] | 0.56 nM | 0.37 nM |  |
| CCC1(n2nc(Nc3ccc(C(=O)N4CCOCC(C)C4)c(C)c3)c3c(=O)[nH]ccc32)CCN(C(=O)OC(C)(C)C)CC1 (single isomer, unassigned) [Example 3-20, tert-butyl 4-ethyl-4-[3-({3-methyl-4-[(6R or 6S-methyl-1,4-oxazepan-4-yl)carbonyl]phenyl}amino)-4-oxo-4,5-dihydro-1H-pyrazolo[4,3-c]pyridin-1-yl] piperidine-1-carboxylate] | 0.53 nM | 0.99 nM |  |
| CCC1(n2nc(Nc3ccc(C(=O)O)c(C)c3)c3c(=O)[nH]ccc32)CCN(C(=O)OC(C)(C)C)CC1 [Example 2-44, 4-((1-(1-(tert-butoxycarbonyl)-4-ethylpiperidin-4-yl)-4-oxo-4,5-dihydro-1H-pyrazolo [4,3-c]pyridin-3-yl)amino)-2-methylbenzoic acid] | 2.1 nM | 0.23 nM |  |
| CCC1(n2nc(Nc3ccc(C(=O)N4CCCOCC4)c(C)c3)c3c(=O)[nH]ccc32)CCN(C(=O)OC(C)(C)C)CC1 [Example 3-10, tert-butyl 4-ethyl-4-(3-{[3-methyl-4-(1,4-oxazepan-4-ylcarbonyl)phenyl]amino}-4-oxo-4,5-dihydro-1H-pyrazolo[4,3-c]pyridin-1-yl) piperidine-1-carboxylate] | 0.43 nM | 0.29 nM |  |

From patent publication US10072025B2, “Ethyl N-boc piperidinyl pyrazolo pyridones as Janus kinase inhibitors” (Merck Sharp & Dohme Corp., priority 2014, dated 2018)
